Assay results published in US11447501B2, “Biphenyl-containing diarylpyrimido compounds, pharmaceutically-acceptable salts thereof, composition and preparation thereof” (Fudan University, priority 2019, dated 2022).

experiment: Cytotoxicity in uninfected MT-4 cells (MTT assay); assay type: cell-based; conditions: human, uninfected MT-4 cells; concentration that reduces normal uninfected MT-4 cell viability by 50%

| SMILES | CC50 at 7 d |
| --- | --- |
| Cc1cc(C#N)cc(C)c1Oc1nc(Nc2ccc(C#N)cc2)nc(N)c1Br [ETR, Etravirine] | > 4.61 µM |
| Cc1ccnc2c1NC(=O)c1cccnc1N2C1CC1 [NVP, Nevirapine] | > 15 µM |

same assay, conditions: human; concentration that reduces normal uninfected MT-4 cell viability by 50%

| SMILES | CC50 at 7 d |
| --- | --- |
| O=C1Nc2ccc(Cl)cc2[C@@](C#CC2CC2)(C(F)(F)F)O1 [EFV, Efavirenz] | > 6.34 µM |

experiment: not given; conditions: clinical use; cited from earlier work

| SMILES | response rate |
| --- | --- |
| Cc1cc(C#N)cc(C)c1Oc1nc(Nc2ccc(C#N)cc2)nc(N)c1Br [ETR, Etravirine] | 36.5% |

experiment: not given; conditions: not given

| SMILES | melting point |
| --- | --- |
| Cc1cc(-c2ccc(Oc3nc(Nc4ccc(C#N)cc4)nc4ccsc34)c(C)c2)ccc1C#N [Example 16] | 259.4 to 261.1 °C |
| Cc1cc(C#N)ccc1-c1ccc(Oc2nc(Nc3ccc(C#N)cc3)nc3ccsc23)cc1 [Example 5] | 278.4 to 279.5 °C |
| Cc1cc(-c2ccc(C#N)cc2F)ccc1Oc1nc(Nc2ccc(C#N)cc2)nc2ccsc12 [Example 9] | 268.5 to 271 °C |
| Cc1cc(-c2ccc(Oc3nc(Nc4ccc(C#N)cc4)nc4ccsc34)cc2)ccc1C#N [Example 6] | 256.5 to 257.9 °C |
| Cc1cc(-c2ccc(C#N)cc2C)ccc1Oc1nc(Nc2ccc(C#N)cc2)nc2ccsc12 [Example 15] | 262.4 to 263.7 °C |
| N#Cc1ccc(Nc2nc(Oc3ccc(-c4ccc(C#N)cc4Cl)cc3)c3sccc3n2)cc1 [Example 3] | > 300 °C |
| N#Cc1ccc(Nc2nc(Oc3ccc(-c4ccc(C#N)cc4F)cc3F)c3sccc3n2)cc1 [Example 7] | 295.3 to 297 °C |
| Cc1cc(-c2ccc(Oc3nc(Nc4ccc(C#N)cc4)nc4ccsc34)cc2C)ccc1C#N [Example 18] | 264.9 to 266.2 °C |
| N#Cc1ccc(Nc2nc(Oc3ccc(-c4ccc(C#N)cc4F)cc3)c3sccc3n2)cc1 [Example 1] | 272.5 to 273.6 °C |
| N#Cc1ccc(Nc2nc(Oc3ccc(-c4ccc(C#N)c(F)c4)cc3)c3sccc3n2)cc1 [Example 2] | 258.8 to 260.3 °C |
| Cc1cc(C#N)ccc1-c1ccc(Oc2nc(Nc3ccc(C#N)cc3)nc3ccsc23)cc1C [Example 17] | 274.3 to 275.8 °C |
| N#Cc1ccc(Nc2nc(Oc3ccc(-c4ccc(C#N)c(Cl)c4)cc3)c3sccc3n2)cc1 [Example 4] | 246.3 to 247.7 °C |
| Cc1cc(-c2ccc(Oc3nc(Nc4ccc(C#N)cc4)nc4ccsc34)c(F)c2)ccc1C#N [Example 14] | 252.5 to 254.2 °C |
| Cc1cc(-c2ccc(C#N)c(F)c2)ccc1Oc1nc(Nc2ccc(C#N)cc2)nc2ccsc12 [Example 10] | 299.3 to 300.2 °C |
| Cc1cc(C#N)ccc1-c1ccc(Oc2nc(Nc3ccc(C#N)cc3)nc3ccsc23)c(F)c1 [Example 13] | 275.2 to 276.8 °C |
| N#Cc1ccc(Nc2nc(Oc3ccc(-c4ccc(C#N)c(F)c4)cc3F)c3sccc3n2)cc1 [Example 8] | > 300 °C |
